In ChEMBL document CHEMBL5034015, “Structure-Based Optimization of 3-Phenyl-N-(2-(3-phenylureido)ethyl)thiophene-2-sulfonamide Derivatives as Selective Mcl-1 Inhibitors” (J Med Chem, 2021) one finds viability, Activity and inhibition data, which are given here for two molecules.

Broadly, the inhibition is the drop in the measured response relative to a control, in per cent.

The test system of data set [1] is RS4-11. Briefly: Induction of apoptosis in human RS4-11 cells assessed as viable cells at 1 uM measured after 24 hrs by Annexin V/7-AAD and MitoSense Red staining based flow cytometry analysis relative to control (reference value: 94.15 %). The format is functional. To be noted: read-out: Activity. In general terms: A flow cytometer gives signals particle by particle.

In data set [2] the test system is RS4-11. Briefly: Induction of apoptosis in human RS4-11 cells assessed as increase in cleaved caspase 3 expression incubated for 48 hrs by western blot analysis. The data set is classed as functional, cell-based.
In data set [3] the test system is RS4-11. Briefly: Induction of apoptosis in human RS4-11 cells assessed as increase in cleaved caspase 9 expression incubated for 48 hrs by western blot analysis. The data set is classed as functional, cell-based.
In data set [4] the test system is RS4-11. The experiment in a line: Induction of apoptosis in human RS4-11 cells assessed as necrotic cells at 1 uM measured after 24 hrs by Annexin V/7-AAD and MitoSense Red staining based flow cytometry analysis relative to control (reference value: 1.11 %). The format is functional.
The test system of data set [5] is RS4-11. Briefly: Induction of apoptosis in human RS4-11 cells assessed as increase in cleaved PARP expression incubated for 48 hrs by western blot analysis. The format is functional, cell-based. Background: A western blot detects proteins with antibodies after separation by electrophoresis.
The target in data set [6] is T1, Induced myeloid leukemia cell differentiation protein Mcl-1 (Homo sapiens, UniProt Q07820). Briefly: Binding affinity to full length human MCL1 expressed in Escherichia coli BL21 (DE3) at up to 100 uM preincubated for 30 mins followed by 5-FAM-QEDIIIINIARHLAQVGDSMD-RSIPPG tracer addition and measured after 20 mins by fluorescence polarization assay. To be noted: dose microM <=100, time 50.0 min. In general terms: Fluorescence polarisation rises when a labelled molecule tumbles more slowly, as on binding a larger partner.

Data set [7] relates to RS4-11. The experiment in a line: Induction of apoptosis in human RS4-11 cells assessed as late apoptotic cells at 1 uM measured after 24 hrs by Annexin V/7-AAD and MitoSense Red staining based flow cytometry analysis relative to control (reference value: 0.99 %). The data set is classed as functional.
Data set [8] relates to RS4-11. Briefly: Induction of apoptosis in human RS4-11 cells assessed as early apoptotic cells at 1 uM measured after 24 hrs by Annexin V/7-AAD and MitoSense Red staining based flow cytometry analysis relative to control (reference value: 3.75 %). The data set is classed as functional.
The subject of data set [9] is RS4-11. Briefly: Cytotoxicity against human RS4-11 cells assessed as cell viability at 20 uM incubated for 48 hrs by CCK8 assay relative to control. The format is functional. To be noted: read-out: Activity.
Data set [10] has as its target Apoptosis regulator Bcl-2 (Homo sapiens, UniProt P10415). The experiment in a line: Binding affinity to full length human Bcl-2 expressed in Escherichia coli BL21 (DE3) at 100 uM preincubated for 30 mins followed by 5-FAM-QEDIIIINIARHLAQVGDSMD-RSIPPG tracer addition and measured after 20 mins by fluorescence polarization assay relative to control. To be noted: time 50.0 min.

Data set [11] concerns the target T1, Induced myeloid leukemia cell differentiation protein Mcl-1. Briefly: Binding affinity to full length human MCL1 expressed in Escherichia coli BL21 (DE3) at 100 uM preincubated for 30 mins followed by 5-FAM-QEDIIIINIARHLAQVGDSMD-RSIPPG tracer addition and measured after 20 mins by fluorescence polarization assay relative to control. To be noted: time 50.0 min.

Data set [12] can be described thus: Cytotoxicity against HEK293T cells assessed as cell viability at 20 uM incubated for 48 hrs by CCK8 assay relative to control. The data set is classed as cell-based, HEK-293T. To be noted: human, read-out: Activity.
The target of the next data set is Bcl-2-like protein 1 (Homo sapiens, UniProt Q07817). Briefly: Binding affinity to full length human Bcl-xl expressed in Escherichia coli BL21 (DE3) at 100 uM preincubated for 30 mins followed by 5-FAM-QEDIIIINIARHLAQVGDSMD-RSIPPG tracer addition and measured after 20 mins by fluorescence polarization assay relative to control. As to conditions: time 50.0 min.
The test system of a further data set is HeLa. The experiment in a line: Cytotoxicity against human HeLa cells assessed as cell viability at 20 uM incubated for 48 hrs by CCK8 assay relative to control. To be noted: read-out: Activity. The data set is classed as functional.
The subject of the next data set is HL-60. Briefly: Cytotoxicity against human HL-60 cells assessed as cell viability at 20 uM incubated for 48 hrs by CCK8 assay relative to control. The data set is classed as functional. To be noted: read-out: Activity.

Calls of active or inactive are those of the source. The calls are words filed in the database; no cut-off is given here.

T1 sequence (Q07820 whole entry): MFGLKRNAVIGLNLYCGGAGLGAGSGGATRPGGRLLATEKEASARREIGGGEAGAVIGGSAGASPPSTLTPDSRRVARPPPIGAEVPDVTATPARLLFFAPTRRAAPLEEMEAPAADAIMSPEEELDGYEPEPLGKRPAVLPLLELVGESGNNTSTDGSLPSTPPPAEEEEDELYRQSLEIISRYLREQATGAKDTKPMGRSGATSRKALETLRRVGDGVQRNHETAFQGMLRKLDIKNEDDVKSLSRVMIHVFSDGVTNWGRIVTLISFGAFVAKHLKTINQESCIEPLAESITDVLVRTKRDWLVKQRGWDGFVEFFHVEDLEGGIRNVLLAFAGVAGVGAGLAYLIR
Bcl-2-like protein 1, sequence (Q07817 whole entry): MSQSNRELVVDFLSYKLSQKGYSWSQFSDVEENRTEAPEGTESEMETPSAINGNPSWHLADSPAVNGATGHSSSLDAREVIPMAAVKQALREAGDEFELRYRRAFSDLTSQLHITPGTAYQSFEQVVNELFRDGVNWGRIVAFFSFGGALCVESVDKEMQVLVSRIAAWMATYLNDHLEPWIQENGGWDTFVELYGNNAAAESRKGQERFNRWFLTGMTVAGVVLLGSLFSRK
Apoptosis regulator Bcl-2, sequence (P10415 whole entry): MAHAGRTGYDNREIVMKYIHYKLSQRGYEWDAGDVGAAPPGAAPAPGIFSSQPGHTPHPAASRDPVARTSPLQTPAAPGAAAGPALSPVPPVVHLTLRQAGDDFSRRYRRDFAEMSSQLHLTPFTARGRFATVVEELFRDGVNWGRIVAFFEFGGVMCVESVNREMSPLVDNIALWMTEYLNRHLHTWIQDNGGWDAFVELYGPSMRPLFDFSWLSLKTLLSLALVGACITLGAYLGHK

Consider `CC1(C)CCC(CN2CCN(c3ccc(C(=O)NS(=O)(=O)c4ccc(NCC5CCOCC5)c([N+](=O)[O-])c4)c(Oc4cnc5[nH]ccc5c4)c3)CC2)=C(c2ccc(Cl)cc2)C1` [VENETOCLAX], for which the viability at 1 µM with RS4-11 [1] is 0.45%. Besides, the Activity entry in the data set with RS4-11 [2] is “Dose-Dependent Effect”; with RS4-11 [3], “Dose-Dependent Effect”; in the data set with RS4-11 [4], 0.26%; in the data set on RS4-11 [5], “Dose-Dependent Effect”; in the data set on RS4-11 [7] it was 88.54%; with RS4-11 [8] it was 10.75%. For the same molecule, in data set [6], the outcome was inactive.
In the case of `O=C(Nc1cc(C(F)(F)F)cc(C(F)(F)F)c1)N1CCN(S(=O)(=O)c2sccc2-c2ccccc2Oc2ccc(O)c(O)c2)CC1`, the viability at 20 µM came out at 10% with RS4-11 [9], 20% in the data set on HeLa and 15% in the data set with HL-60. Further, the results for the inhibition (in data set [10]; in data set [11]; on Bcl-2-like protein 1) were 7%, 47% and -8%, respectively. Moreover, in [12], the viability at 48 h, 20 µM was determined as 29%.
